Each structure is given as a SMILES string.

Here are results for 41 molecules from patent publication US20160304556A1, “[…] ACTIVE COMPOUNDS AND THEIR METHODS OF USE” (AGIOS PHARMACEUTICALS, INC, priority 2012, published 2016).

One test has as its target IDH1 R132H (Homo sapiens, UniProt O75874, R132H). The test can be described thus: In vitro NADPH depletion assay for IDH1m R132H inhibitors. Type of test: biochemical. The note with it: enzyme, diaphorase/resazurin readout, read-out: IDH R132H IC50. The protocol: A test compound is prepared as 10 mM stock in DMSO and diluted to 50× final concentration in DMSO, for a 50 μl reaction mixture. IDH enzyme activity converting alpha-ketoglutarate to 2-hydroxyglutaric acid is measured using a NADPH depletion assay. In the assay the remaining cofactor is measured at the end of the reaction with the addition of a catalytic excess of diaphorase and resazurin, to generate a fluorescent signal in proportion to the amount of NADPH remaining. IDH1-R132 homodimer enzyme is diluted to […] in 40 μl of Assay Buffer(150 mM NaCl, 20 mM Tris-Cl pH 7.5, 10 mM MgCl2, 0.05% BSA, 2 mM b-mercaptoethanol); 1 μl of test compound dilution in DMSO is added and the mixture is incubated for 60 minutes at room temperature. The reaction is started with the addition of 10 μl of Substrate Mix ([…], 5 mM alpha-ketoglutarate, in Assay Buffer) and the mixture is incubated for 90 minutes at room temperature. The reaction is terminated with the addition of 25 μl of Detection Buffer (36 μg/ml diaphorase, […], in 1× Assay Buffer), and is incubated for 1 minute before reading on a SpectraMax platereader at Ex544/Em590.
Representative compounds of formula I set forth in Table 1 were tested in this assay and the results are set forth below in Table 3.
(Resazurin is reduced to fluorescent resorufin, in cell work by metabolically active cells.)

The subject of another test is HT1080 cells. The test can be described thus: Cellular assay, inhibition of 2-HG production (LC-MS) in HT1080 cells. Format: cell-based. Particulars: Homo sapiens, HT-1080, 48 hours, LC-MS of media. The protocol: Cells (HT1080 or U87MG) are grown in T125 flasks in DMEM containing 10% FBS, 1× penicillin/streptomycin and 500 ug/mL G418 (present in U87MG cells only). They are harvested by trypsin and seeded into 96 well white bottom plates at a density of 5000 cell/well in 100 μl/well in DMEM with 10% FBS. No cells are placed in columns 1 and 12. Cells are incubated overnight at 37° C. in 5% CO2. The next day test compounds are made up at 2× the final concentration and 100 μl are added to each cell well. The final concentration of DMSO is 0.2% and the DMSO control wells are plated in row G. The plates are then placed in the incubator for 48 hours. At 48 hours, 100 μl of media is removed from each well and analyzed by LC-MS for 2-HG concentrations. The cell plate is placed back in the incubator for another 24 hours. At 72 hours post compound addition, 10 mL/plate of Promega Cell Titer Glo reagent is thawed and mixed. The cell plate is removed from the incubator and allowed to equilibrate to room temperature. Then 100 μl of Promega Cell Titer Glo reagent is added to each well of media. The cell plate is then placed on an orbital shaker for 10 minutes and then allowed to sit at room temperature for 20 minutes. The plate is then read for luminescence with an integration time of 500 ms.
The IC50 for inhibition of 2-HG production (concentration of test compound to reduce 2HG production by 50% compared to control) in these two cell lines for various compounds of formula I is set forth in Table 2 above.

Chain of IDH1 R132H (O75874 whole entry R132H): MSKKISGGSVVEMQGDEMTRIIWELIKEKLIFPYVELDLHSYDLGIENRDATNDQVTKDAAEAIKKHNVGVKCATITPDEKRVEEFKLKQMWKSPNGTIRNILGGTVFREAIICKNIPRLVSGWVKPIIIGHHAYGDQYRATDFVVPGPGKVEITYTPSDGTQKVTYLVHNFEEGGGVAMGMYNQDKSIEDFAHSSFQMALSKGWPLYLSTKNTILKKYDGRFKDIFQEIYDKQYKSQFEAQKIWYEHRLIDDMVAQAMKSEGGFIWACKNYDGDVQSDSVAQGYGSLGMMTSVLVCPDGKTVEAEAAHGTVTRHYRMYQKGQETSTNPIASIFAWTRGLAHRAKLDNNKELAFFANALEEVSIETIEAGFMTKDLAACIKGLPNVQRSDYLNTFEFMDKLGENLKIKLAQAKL

In general, IC50 refers to the point on the concentration scale where inhibition reaches its midpoint. For `O=C(NC1CCC(F)(F)CC1)C(c1ccccc1Cl)N(C(=O)Cn1ccnn1)c1cccc(F)c1` (centres unmarked) [Compound 46], the values for the half-inhibitory concentration (IC50) on IDH1 R132H and with HT1080 cells were 100 to 500 nM and 1000 to 2000 nM, respectively.
Regarding `N#Cc1ncn(CC(=O)N(c2cccc(F)c2)C(C(=O)NC2CCCCC2)c2ccccc2Cl)c1C#N` (centres unmarked) [Compound 22], the IC50 lay within 100 to 500 nM on IDH1 R132H and 500 to 1000 nM with HT1080 cells.
Turning to `Cc1ccccc1C(C(=O)NC1CC(F)(F)C1)N(C(=O)CNc1cccnc1F)c1cccc(F)c1` (centres unmarked) [Compound 19], the IC50 with HT1080 cells is 100 to 500 nM.
Consider `O=C(NC1CCC(F)(F)CC1)C(c1ccccc1Cl)N(C(=O)Cn1cnc(Cl)c1Cl)c1cccc(F)c1` (centres unmarked) [Compound 33], for which the results for the 50% inhibitory concentration (IC50) at IDH1 R132H and in the test with HT1080 cells were at most 100 nM and 100 to 500 nM, respectively.
In the same order, the values of `COC(=O)N1C[C@H](O)C[C@H]1C(=O)N(c1cccc(F)c1)[C@H](C(=O)NC1CC(F)(F)C1)c1ccccc1Cl` [Compound 51] are at most 100 nM and 500 to 1000 nM.
Take `Cc1ccccc1C(C(=O)NC1CCCCC1)N(C(=O)CCNC(=O)OC(C)(C)C)c1cccc(F)c1` (centres unmarked) [Compound 8]: the IC50 at IDH1 R132H lay in the range of 500 to 1000 nM.
With `Cc1ccccc1C(C(=O)NC1CC(F)(F)C1)N(C(=O)CNc1ncccc1F)c1cccc(F)c1` (centres unmarked) [Compound 17], the IC50 on IDH1 R132H and in the test with HT1080 cells was 100 to 500 nM throughout.
Molecule `Cc1ccccc1C(C(=O)NC1CCC(F)(F)CC1)N(C(=O)CNc1cccnc1F)c1cccc(F)c1` (centres unmarked) [Compound 16] came in with an IC50 in the test on HT1080 cells of 100 to 500 nM.
In the case of `CNC(=O)N1CCCC[C@@H]1C(=O)N(c1cccc(F)c1)[C@H](C(=O)NC1CCCCC1)c1ccccc1C` [Compound 3], on IDH1 R132H, the half-maximal inhibitory concentration (IC50) lay in the range of 500 to 1000 nM.
With `O=C(NC1CC(F)(F)C1)C(c1ccccc1Cl)N(C(=O)[C@@H]1CCCc2nccn21)c1cccc(F)c1` (stereo in doubt) [Compound 41], the IC50 at IDH1 R132H is at most 100 nM; in the test with HT1080 cells, 100 to 500 nM.
On to `Cc1ccccc1C(C(=O)NC1CCCCC1)N(C(=O)CNC(=O)OC(C)(C)C)c1cccc(F)c1` (centres unmarked) [Compound 7], for which the IC50 at IDH1 R132H is 500 to 1000 nM.
Still for that read-out and setting: then `O=C(NC1CCC(F)(F)CC1)C(c1ccccc1Cl)N(C(=O)Cn1cncn1)c1ccc(F)c(F)c1` (centres unmarked) [Compound 37], with 100 to 500 nM.
Consider `Cc1nccn1CC(=O)N(c1cccc(-c2nnco2)c1)C(C(=O)NC1CCCCC1)c1ccccc1Cl` (centres unmarked) [Compound 25, N-(3-(1,3,4-oxadiazol-2-yl)phenyl)-N-(1-(2-chlorophenyl)-2-(cyclohexylamino)-2-oxoethyl)-2-(2-methyl-1H-imidazol-1-yl)acetamide], for which the values for the IC50 on IDH1 R132H and in the test on HT1080 cells were 100 to 500 nM and 1000 to 2000 nM, respectively.
For `O=C(NC1CC(F)(F)C1)C(c1ccccc1Cl)N(C(=O)c1cccc2nccn12)c1cccc(F)c1` (centres unmarked) [Compound 40], the half-inhibitory concentration (IC50) at IDH1 R132H is 500 to 1000 nM.
`O=C(NC1CCCCC1)C(c1ccc(F)cc1F)N(C(=O)Cn1cnc(Cl)c1Cl)c1ccc(F)c(F)c1` (centres unmarked) [Compound 30, N-cyclohexyl-2-(2-(4,5-dichloro-1H-imidazol-1-yl)-N-(3,4-difluorophenyl)acetamido)-2-(2,4-difluorophenyl)acetamide]: the values for the 50% inhibitory concentration (IC50) on IDH1 R132H and in the test with HT1080 cells were 100 to 500 nM and 500 to 1000 nM, respectively.
As to `CC(C)(C)OC(=O)N1CCC[C@H]1C(=O)N(c1cccc(F)c1)[C@H](C(=O)NC1CC(F)(F)C1)c1ccccc1Cl` [Compound 39], on IDH1 R132H, the half-inhibitory concentration (IC50) is 500 to 1000 nM.
For `CC(=O)N1CCC[C@H]1C(=O)N(c1cccc(F)c1)[C@H](C(=O)NC1CCCCC1)c1ccccc1C` [Compound 9], the figures for the half-maximal inhibitory concentration (IC50) on IDH1 R132H and in the test on HT1080 cells were 100 to 500 nM and 1000 to 2000 nM, respectively.
As to `Cc1ccccc1[C@@H](C(=O)NC1CCCCC1)N(C(=O)[C@@H]1CCCN1S(C)(=O)=O)c1cccc(F)c1` [Compound 1], the half-inhibitory concentration (IC50) on IDH1 R132H was 500 to 1000 nM.
For the molecule `O=C(NC1CC(F)(F)C1)C(c1ccccc1Cl)N(C(=O)CNc1cccnc1F)c1cccc(F)c1` (centres unmarked) [Compound 47], the IC50 was at most 100 nM at IDH1 R132H and 100 to 500 nM in the test on HT1080 cells.
Take `Cc1ccccc1[C@@H](C(=O)NC1CCCCC1)N(C(=O)[C@H]1CCCCN1C(=O)N(C)C)c1cccc(F)c1` [Compound 4]: the IC50 at IDH1 R132H is 500 to 1000 nM.
In the case of `N#Cc1ccnc(N2c3ccccc3C[C@H]2C(=O)N(c2cc(F)cc(F)c2)C(C(=O)NC2CC(F)(F)C2)c2ccccc2Cl)c1` (stereo partly drawn) [Compound 119, (2S)—N-(1-(2-chlorophenyl)-2-((3,3-difluorocyclobutyl)amino)-2-oxoethyl)-1-(4-cyanopyridin-2-yl)-N-(3,5-difluorophenyl)indoline-2-carboxamide], the IC50 on IDH1 R132H and with HT1080 cells was 100 to 500 nM each time.
With `Cc1nccn1CC(=O)N(c1cccc(F)c1)C(C(=O)NC1CC(F)(F)C1)c1ccccc1Cl` (centres unmarked) [Compound 59], at IDH1 R132H, the IC50 lay in the range of 100 to 500 nM.
Same read-out and setting: then `CNC(=O)N1CCC[C@@H]1C(=O)N(c1cccc(F)c1)[C@H](C(=O)NC1CCCCC1)c1ccccc1C` [Compound 13], with 500 to 1000 nM.
Same read-out and setting: the value for `O=C(NC1CCC(F)(F)CC1)C(c1ccccc1Cl)N(C(=O)Cn1cnc(Cl)c1Cl)c1ccc(F)c(F)c1` (centres unmarked) [Compound 38] was 100 to 500 nM; that for `O=C(NC1CCC(F)(F)CC1)C(c1ccccc1Cl)N(C(=O)c1cc2ccccc2[nH]1)c1cccc(F)c1` (centres unmarked) [Compound 34] was 500 to 1000 nM; that for `COC(=O)NCCC(=O)N(c1cccc(F)c1)C(C(=O)NC1CCCCC1)c1ccccc1C` (centres unmarked) [Compound 12] was 100 to 500 nM.
Consider `O=C(NC1CC(F)(F)C1)C(c1ccccc1Cl)N(C(=O)CN1CCOC1=O)c1cccc(F)c1` (centres unmarked) [Compound 60, 2-(2-chlorophenyl)-N-(3,3-difluorocyclobutyl)-2-(N-(3-fluoro-phenyl)-2-(2-oxooxazolidin-3-yl)acetamido)acetamide], for which the IC50 at IDH1 R132H lay within 500 to 1000 nM.
Regarding `Cc1ccccc1C(C(=O)NC1CC(F)(F)C1)N(C(=O)Cn1ccnc1C)c1cccc(F)c1` (centres unmarked) [Compound 18], the IC50 at IDH1 R132H is 500 to 1000 nM; in the test on HT1080 cells, 1000 to 2000 nM.
Consider `Cc1ccccc1[C@@H](C(=O)NC1CCCCC1)N(C(=O)[C@H]1CCCN1)c1cccc(F)c1` [Compound 14], for which, at IDH1 R132H, the IC50 was 500 to 1000 nM.
The molecule `O=C(NC1CC(F)(F)C1)[C@H](c1ccccc1Cl)N(C(=O)C1CCN1c1ncccn1)c1cccc(F)c1` (some centres unmarked) [Compound 103] had a concentration for half-maximal inhibition (IC50) with HT1080 cells of 1000 to 2000 nM.
Take `N#Cc1cccc(N(C(=O)Cn2cnc(Cl)c2Cl)C(C(=O)NC2CCCCC2)c2ccccc2Cl)c1` (centres unmarked) [Compound 27]: the IC50 at IDH1 R132H lay within 100 to 500 nM; with HT1080 cells, 500 to 1000 nM.
The like results for `COC(=O)N1C[C@@H](O)C[C@H]1C(=O)N(c1cccc(F)c1)[C@H](C(=O)NC1CC(F)(F)C1)c1ccccc1Cl` [Compound 52] were, in that order, at most 100 nM and 500 to 1000 nM.
In the case of `Cc1ccccc1C(C(=O)NC1CC2CC2C1)N(C(=O)CNc1cccnc1F)c1cccc(F)c1` (centres unmarked) [Compound 15], at IDH1 R132H, the IC50 was 100 to 500 nM.
As for `COC(=O)N1CCC[C@H]1C(=O)N(c1cccc(F)c1)[C@H](C(=O)NC1CC(F)(F)C1)c1ccccc1Cl` [Compound 42, (S)-methyl 2-(((S)-1-(2-chlorophenyl)-2-((3,3-difluorocyclobutyl)amino)-2-oxoethyl)(3-fluorophenyl)carbamoyl)pyrrolidine-1-carboxylate], the 50% inhibitory concentration (IC50) at IDH1 R132H is at most 100 nM; with HT1080 cells, 100 to 500 nM.
In the case of `O=C(NC1CCCCC1)C(c1ccccc1Cl)N(C(=O)c1cc2ccccc2[nH]1)c1cccc(F)c1` (centres unmarked) [Compound 20], on IDH1 R132H, the IC50 fell in the range of 500 to 1000 nM.
The molecule `O=C(NC1CCCCC1)C(c1ccccc1Cl)N(C(=O)Cn1cnc(Cl)c1Cl)c1cccc(F)c1` (centres unmarked) [Compound 21] registered an IC50 in the test with HT1080 cells of 100 to 500 nM.
`O=C(NC1CC(F)(F)C1)[C@@H](c1ccccc1Cl)N(C(=O)[C@@H]1Cc2ccccc2N1)c1cc(F)cc(F)c1` (single isomer, unassigned) [Compound 117]: the IC50 at IDH1 R132H lay in the range of 100 to 500 nM.
For `CNS(=O)(=O)c1cccc(N(C(=O)[C@@H]2CCCN2C(=O)OC)[C@H](C(=O)NC2CC(F)(F)C2)c2ccccc2Cl)c1` [Compound 58], the IC50 at IDH1 R132H lay within 100 to 500 nM.
For the molecule `N#Cc1ccccc1C(C(=O)NC1CCCCC1)N(C(=O)Cn1cnc(Cl)c1Cl)c1cccc(F)c1` (centres unmarked) [Compound 28], the concentration for half-maximal inhibition (IC50) at IDH1 R132H was in the range of 100 to 500 nM.
`CC(C)(C)OC(=O)N1CCC[C@H]1C(=O)N(c1cccc(F)c1)[C@H](C(=O)NC1CCC(F)(F)CC1)c1ccccc1Cl` [Compound 44]: the half-maximal inhibitory concentration (IC50) on IDH1 R132H is 500 to 1000 nM.
Still for that read-out and setting: the value for `CC(=O)N1CCC[C@@H]1C(=O)N(c1cccc(F)c1)[C@H](C(=O)NC1CCCCC1)c1ccccc1C` [Compound 10] was 100 to 500 nM.
